# Ends that are not written are not given here.
# How the values were obtained:
# A549 epithelial cells = experiment: LDH release; assay type: cell-based, human; settings: for effect of receptor inhibitor on LL-37-induced LDH release: 1 h pretreatment (pertussis toxin 100 ng/ml; PD1683 2 μM; AG1478 1 μM), then 50 μg/ml LL-37 for 24 h, DMEM without serum
# [1] = system: airway epithelial or monocyte-like cell line; settings: presence of FBS; cited from earlier work
compound,measurement,setting,value
COc1cc2ncnc(Nc3cccc(Cl)c3)c2cc1OC [AG1478],effect of receptor inhibitor on LL-37-induced LDH release,A549 epithelial cells,No decrease in LDH release
C=CC(=O)Nc1ccc2ncnc(Nc3cccc(Br)c3)c2c1 [PD1683],effect of receptor inhibitor on LL-37-induced LDH release,A549 epithelial cells,No decrease in LDH release
CRAMP,LDH release effects at >100 μg/ml in the presence of human serum,"A549 epithelial cells; 10% human serum, data not shown",similarly suppressed
same,cell death compared with LL-37,A549 epithelial cells; A549 cells,induced significantly less cell death than LL-37
same,concentrations at which no statistically significant LDH release was observed,A549 epithelial cells; data not shown,< 100 µg/mL
"indolicidin: cathelicidin peptide (ILPWKWPWWPWRR; ends and bridges not checked; UniProt P33046 131-143, looked up)",induction of cell death,[1],do not induce cell death
pertussis toxin,effect of receptor inhibitor on LL-37-induced LDH release,A549 epithelial cells,No decrease in LDH release

# Source: article PMC2948534 (American journal of respiratory cell and molecular biology, 2005)
